Test results: patent US20060074098A1, “Methods of treatment of amyloidosis using ethanolcyclicamine aspartyl protease inhibitors” (priority 2004, published 2006)
“And” between values parts separate entries of the source, which are not always exact repeats. Equal entries are not always repeated.

Tests used:
[1] = system: catD / beta-secretase (BACE); test: CatD/BACE selectivity (ratio of IC50 values); assay type: biochemical; conditions: each value is an average of four experimental runs; multiple values = more than one experiment
Procedure: (§1) Investigation of potential beta-secretase inhibitors produced compounds with increased selectivity for beta-secretase over other aspartyl proteases such as cathepsin D (catD), cathepsin E (catE), Human Immunodeficiency Viral (HIV) protease, and renin. Selectivity was calculated as a ratio of inhibition (IC50) values in which the inhibition of beta-secretase was compared to the inhibition of other aspartyl proteases.
The compounds of formula (I) can be selective for beta-secretase versus catD.
(§2) In the following examples, each value is an average of four experimental runs and multiple values for one compound indicate that more than one experiment was conducted.

[2] = system: catE / beta-secretase (BACE); test: CatE/BACE selectivity (ratio of IC50 values); assay type: biochemical; conditions: each value is an average of four experimental runs, multiple values = more than one experiment
Procedure: as §1
The compounds of formula (I) can be selective for beta-secretase versus catE. […] Selectivity is reported as the ratio of IC50(catE):IC50(BACE).
as §2

SMILES	Selectivity IC50 catD/IC50 BACE [1]	Selectivity IC50 catE/IC50 BACE ([2]; listed as 8.3)	Selectivity IC50 catE/IC50 BACE [2]
CCCC1CCNC(C(O)C(Cc2cc(F)cc(F)c2)NC(C)=O)C1 (stereo not shown) [Example 8.1, N-[1-(3,5-Difluoro-benzyl)-2-hydroxy-2-(4-propylpiperidin-2-yl)-ethyl]-acetamide]	> 2.9 and > 2.4	> 2.9 and > 2.4	
CC(=O)NC(Cc1cc(F)cc(F)c1)C(O)C1CC2CCCCC2CN1 (stereo not shown) [Example 8.2, N-(1-(decahydroisoquinolin-3-yl)-3-(3,5-difluorophenyl)-1-hydroxypropan-2-yl)acetamide]	>3.3		>3.3
